Reference: PMC4404319 (ACS Chemical Neuroscience, 2015)
Entries after “also recorded” stand apart in the source; their conditions may differ.

Columns and labels:
[1] = test system: 166 GPCRs; experiment: Functional GPCR agonist and antagonist screen, whole panel; format: cell-based; details: agonist 12 500 nM, antagonist 10 000 nM
[2] = Chemical stability; format: physicochemical; details: pH 1–13, 24 h, 37 °C
[3] = test system: C57BL/6 mice; experiment: Modified SHIRPA adverse pharmacology screen; format: in vivo; details: 50 and 150 mg/kg, 24 h observation
[4] = in vivo; details: male, Sprague-Dawley, rat, 5 mg/kg
[5] = in vitro; details: rat, liver microsomes, pH 7.4
[6] = test system: P-gp; experiment: in vitro; details: human, Caco-2
[7] = test system: BCRP; experiment: in vitro; details: dog
[8] = test system: Salmonella typhimurium TA98 and TA100; experiment: Ames bacterial reverse mutation assay; details: ± metabolic activation, up to 5 μg/plate
[9] = target: T1, MAO-A (Homo sapiens, UniProt P21397); experiment: Monoamine oxidase inhibition; details: 0.01–25 μM
T1 sequence (P21397 1-527): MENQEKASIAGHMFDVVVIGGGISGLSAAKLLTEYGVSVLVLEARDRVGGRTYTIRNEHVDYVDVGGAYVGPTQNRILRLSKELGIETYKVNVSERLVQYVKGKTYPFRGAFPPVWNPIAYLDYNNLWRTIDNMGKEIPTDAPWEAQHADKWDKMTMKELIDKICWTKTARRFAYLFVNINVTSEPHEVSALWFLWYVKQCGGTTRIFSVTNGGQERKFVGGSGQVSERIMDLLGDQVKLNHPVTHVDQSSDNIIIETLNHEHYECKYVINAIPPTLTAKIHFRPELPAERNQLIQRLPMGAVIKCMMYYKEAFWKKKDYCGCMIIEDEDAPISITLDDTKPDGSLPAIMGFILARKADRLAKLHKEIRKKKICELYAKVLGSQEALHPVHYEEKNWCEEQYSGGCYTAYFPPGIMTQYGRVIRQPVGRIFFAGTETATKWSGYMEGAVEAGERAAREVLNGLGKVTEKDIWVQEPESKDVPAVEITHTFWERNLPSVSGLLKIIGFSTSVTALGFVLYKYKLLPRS

[10] = target: T2, MAO-B (Homo sapiens, UniProt P27338); experiment: Monoamine oxidase inhibition; details: 0.01–25 μM
T2 sequence (P27338 1-520): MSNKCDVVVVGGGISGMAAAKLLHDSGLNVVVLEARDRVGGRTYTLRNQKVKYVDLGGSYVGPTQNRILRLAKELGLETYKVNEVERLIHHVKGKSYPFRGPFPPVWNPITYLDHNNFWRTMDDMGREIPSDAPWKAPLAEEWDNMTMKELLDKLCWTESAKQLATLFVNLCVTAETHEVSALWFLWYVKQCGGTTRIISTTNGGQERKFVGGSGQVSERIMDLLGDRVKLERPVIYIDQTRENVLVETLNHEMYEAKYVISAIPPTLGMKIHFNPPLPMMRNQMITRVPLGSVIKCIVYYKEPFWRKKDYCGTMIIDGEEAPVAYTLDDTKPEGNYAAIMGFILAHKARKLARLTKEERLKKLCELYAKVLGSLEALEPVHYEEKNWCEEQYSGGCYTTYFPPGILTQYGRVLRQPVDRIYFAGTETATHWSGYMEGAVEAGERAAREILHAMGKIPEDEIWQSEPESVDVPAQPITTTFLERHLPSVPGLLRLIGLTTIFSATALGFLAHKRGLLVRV

[11] = test system: Caco-2 / P-gp; experiment: Caco-2 two-way permeability / P-gp substrate; details: Caco-2, second of two values given 'respectively'
[12] = test system: MDCK / BCRP; experiment: BCRP-MDCK two-way permeability / BCRP substrate
[13] = test system: APP/PS1 transgenic (Tg) mouse; experiment: Behavior in APP/PS1 transgenic mice, preventative paradigm
[14] = 2.5 mg/kg, oral, daily, 8 weeks to 3–4 months of age

With `CN1CCN(c2cc(-c3ccncc3)c(-c3ccc4ccccc4c3)nn2)CC1` [MW150, 6-(4-Methylpiperazin-1-yl)-3-(naphthalen-2-yl)-4-(pyridin-4-yl)pyridazine] the “functional GPCR off-target activity” value [1] was “no agonist or antagonist activity; also recorded: negative”, the chemical stability [2] was “chemically stable; also recorded: stable at pH (1–13), 24 h, 37 °C” and the “adverse pharmacology, clinical observation” value [3] was “no differences or adverse events were detected”. For the same compound, the half-life [4] was > 180 min, the half-life at 1 μM [5] was 43 ± 4 min and the microsomal CLint at 1 μM [5] was 20 µL/min/mg. It also gave a Papp A→B at 2 h, 5 μM [6] of 33.5 ×10⁻⁶ cm/s, a Papp B→A at 2 h, 5 μM [6] of 31.2 ×10⁻⁶ cm/s and a recovery [6] of 71%. It also gave a Papp A→B at 2 h, 5 μM [7] of 20.7 ×10⁻⁶ cm/s, a Papp B→A at 2 h, 5 μM [7] of 25.1 ×10⁻⁶ cm/s and a recovery [7] of 66%. For the same compound, the AMES test [8] was “negative”, the MAO-A inhibition [9] was “negative” and the MAO-B inhibition [10] was “negative”. For the same compound, the “percent recovery, second value” [11] was 61%, the MDCK permeability classification [12] was “high cell permeability; also recorded: highly permeable” and the “percent recovery, second value” ([12]; MDCK, second of two values given 'respectively') was 67%. The BCRP substrate status ([12]; effect of 10 μM Ko143 on bidirectional flux) was “not a substrate; also recorded: not BCRP substrate”, the “RAWM (spatial memory)” value [13, 14] was “improved; also recorded: suppression of the deficits” and the “contextual fear memory (associative memory)” value [13, 14] was “improved; also recorded: suppression of the deficits”. The “dose dependence of behavior end points” value ([13]; Figure S2) was “dose dependent”, the “performance of WT mice” value ([13]; WT littermates, 2.5 mg/kg oral daily) was “did not affect” and the sensory threshold ([13]; control behavior) was “No difference”. The visible platform task ([13]; control behavior) was “did not influence; also recorded: No difference”, the cued fear memory ([13]; control behavior, hippocampus-independent) was “no effect; also recorded: No difference” and the open field tests ([13]; control behavior, locomotor activity and anxiety) was “did not influence; also recorded: No difference”.
